In the first test the target is T1, cloned human V1a receptor (Homo sapiens, UniProt P37288).
T1 construct: host or cells: human brain astrocytoma 1321N1 cells
T1 sequence (P37288 whole entry): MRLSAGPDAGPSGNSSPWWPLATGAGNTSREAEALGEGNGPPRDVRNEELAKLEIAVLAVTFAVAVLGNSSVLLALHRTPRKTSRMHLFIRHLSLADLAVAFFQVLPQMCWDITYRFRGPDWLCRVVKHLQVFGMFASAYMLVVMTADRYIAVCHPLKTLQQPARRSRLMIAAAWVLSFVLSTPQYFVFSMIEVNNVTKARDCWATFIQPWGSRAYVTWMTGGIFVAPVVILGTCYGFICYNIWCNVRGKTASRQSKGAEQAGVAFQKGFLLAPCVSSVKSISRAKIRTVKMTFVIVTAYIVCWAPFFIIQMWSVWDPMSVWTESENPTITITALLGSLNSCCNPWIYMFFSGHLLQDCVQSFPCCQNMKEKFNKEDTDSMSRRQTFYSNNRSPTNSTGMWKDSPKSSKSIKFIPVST
The test can be described thus: in vitro functional calcium mobilisation assay (FLIPR), antagonist activity, 1321N1 cells, 250 pM AVP. The class given is cell-based. The conditions noted are these: functional pKi derived from pIC50 (Equation 1), FLIPR Ca2+ mobilisation, 1321N1 cells expressing cloned human V1a receptor, read-out: Mean fpKi (Human V1a) (converted). The essentials:
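Antagonism measured as inhibition of calcium mobilisation induced by 250 pM AVP, with increasing compound concentrations, in 1321N1 astrocytoma cells stably expressing the receptor. pIC50 from 4-parameter logistic fit, converted to functional pKi using agonist concentration and agonist EC50.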
For orientation: A change in cytosolic calcium serves as a functional read-out for many receptors and channels.
In the case of `Cc1cccnc1N1CCC(C(=O)N2CCc3nc(N4CCOCC4)[nH]c3-c3ccccc32)CC1` [Example 10], the Ki was 5.01 nM. The same measure, in the same setting: the same measure for `Cc1ccc(N2CCC(C(=O)N3Cc4cnn(-c5ccccc5)c4Nc4cc(Cl)ccc43)CC2)nc1` [Example 123]: 2 nM; for `CCc1nc2c([nH]1)-c1cc(C)ccc1N(C(=O)C1CCN(c3ncccc3C)CC1)CC2` [Example 17]: 5.01 nM.

Take `CN1CCN(c2nc3c([nH]2)-c2cc(Cl)ccc2N(C(=O)C2CCN(c4ccccn4)CC2)CC3)CC1` [Example 51]: the Ki is 17.4 nM. On the same count and under the same terms, the same measure for `Cc1cccc(N2CCC(C(=O)N3Cc4cnn(C)c4Nc4cc(C)ccc43)CC2)c1` [Example 128]: 1.32 nM. On the same count and under the same terms, as for `Cc1ccc2c(c1)-c1[nH]c(N3CCOCC3)nc1CCN2C(=O)C1CCN(c2cnccc2C)CC1` [Example 69], the figure is 13.8 nM. In the case of `Cn1ncc2c1Nc1cc(Cl)ccc1N(C(=O)C1CCN(c3ccc(C(F)(F)F)cc3)CC1)C2` [Example 140], the Ki is 8.51 nM.

Regarding `O=C(C1CCN(c2ccccn2)CC1)N1CCc2nc(N3CCOCC3)[nH]c2-c2cc(F)ccc21` [Example 13], the Ki is 7.94 nM. The same measure, in the same setting: as for `Cc1nc2c([nH]1)-c1cc(Cl)ccc1N(C(=O)C1CCN(c3ccccc3F)CC1)CC2` [Example 83], the figure is 26.3 nM. Same read-out and setting: the same measure for `Cc1ccnc(N2CCC(C(=O)N3CCc4nc(N5CCOCC5)[nH]c4-c4ccccc43)CC2)c1` [Example 11]: 3.72 nM; for `COc1cccc(N2CCC(C(=O)N3CCc4nc(N5CCOCC5)[nH]c4-c4cc(Cl)ccc43)CC2)n1` [Example 68]: 1.91 nM; for `CCCc1nc2c([nH]1)-c1cc(C)ccc1N(C(=O)C1CCN(c3ncccc3C)CC1)CC2` [Example 21]: 4.47 nM. In the case of `O=C(C1CCN(c2ccccc2)CC1)N1CCc2nc(C3CC3)[nH]c2-c2cc(Cl)ccc21` [Example 75], the Ki is 11 nM. In the case of `Cc1ccc2c(c1)Nc1c(cnn1C)CN2C(=O)C1CCN(c2ccccc2F)CC1` [Example 127], the Ki is 2 nM. Same read-out and setting: the same measure for `O=C(C1CCN(c2ccccn2)CC1)N1CCc2nc(C3CCCCC3)[nH]c2-c2cc(Cl)ccc21` [Example 49]: 23.4 nM; for `COc1ccc(N2CCC(C(=O)N3Cc4cnn(C)c4Nc4cc(C)ccc43)CC2)cc1` [Example 131]: 3.09 nM; for `Cn1ncc2c1Nc1cc(Cl)ccc1N(C(=O)C1CCN(c3ccccc3F)CC1)C2` [Example 134]: 1.74 nM. As for `Cc1ccc2c(c1)-c1[nH]c(N3CCOCC3)nc1CCN2C(=O)C1CCN(c2ccc(C)nc2)CC1` [Example 4, (9-Methyl-2-morpholin-4-yl-4,5-dihydro-1H-1,3,6-triaza-benzo[e]azulen-6-yl)-(6′-methyl-3,4,5,6-tetrahydro-2H-[1,3′]bipyridinyl-4-yl)-methanone], the Ki was 1.48 nM. Regarding `Cc1ccc2c(c1)Nc1c(cnn1C)CN2C(=O)C1CCN(c2cccc(C)n2)CC1` [Example 124], the Ki was 9.55 nM. Same read-out and setting: as for `Cn1ncc2c1Nc1cc(F)ccc1N(C(=O)C1CCN(c3ncccn3)CC1)C2` [Example 100], the figure is 145 nM; as for `Cc1cccc(N2CCC(C(=O)N3CCc4nc(N5CCOCC5)[nH]c4-c4ccccc43)CC2)n1` [Example 60], 12.9 nM; as for `O=C(C1CCN(c2ccccc2)CC1)N1CCc2nc(-c3cccc(F)c3)[nH]c2-c2cc(Cl)ccc21` [Example 81], 93.3 nM. Same read-out and setting: as for `Cc1nc2c([nH]1)-c1ccccc1N(C(=O)C1CCN(c3ccccn3)CC1)CC2` [Example 8], the figure is 151 nM; as for `O=C(C1CCN(c2ccccc2Cl)CC1)N1Cc2cccn2Cc2ccccc21` [Example 157], 7.59 nM; as for `COc1ccc(N2CCC(C(=O)N3Cc4cccn4Cc4ccccc43)CC2)cc1` [Example 164], 14.1 nM.

Take `Cc1ccc2c(c1)-c1[nH]c(N3CCOCC3)nc1CCN2C(=O)C1CCN(c2cccnc2C)CC1` [Example 71]: the Ki is 16.6 nM.

Turning to `O=C(C1CCN(c2ccccc2)CC1)N1CCc2nc(-c3ccccc3F)[nH]c2-c2cc(Cl)ccc21` [Example 80], the Ki was 81.3 nM. Still for that read-out and setting: as for `O=C(C1CCN(c2ccccc2)CC1)N1Cc2cccn2Cc2ccccc21` [Example 149], the figure is 0.589 nM. Still for that read-out and setting: as for `Cc1nc2c([nH]1)-c1cc(Cl)ccc1N(C(=O)C1CCN(c3cccc(Cl)c3)CC1)CC2` [Example 87], the figure is 69.2 nM.

A further test relates to dysmenorrhoea.
Test: not given
The settings on record: clinical study, compared to patients taking placebo; cited from earlier work.
As to `COc1ccc(S(=O)(=O)N2c3ccc(Cl)cc3[C@](O)(c3ccccc3Cl)[C@@H]2C(=O)N2CCC[C@H]2C(N)=O)cc1OC` [SR49059], the “amount of additional pain-killer taken” value is “dose-related decrease in the amount of additional pain-killer taken” and the pain result was “dose-related decrease in pain”.

Values taken from patent US20110312941A1, “1,4-DISUBSTITUTED PIPERIDINES AS VASOPRESSIN RECEPTOR VIA ANTAGONISTS” (VANTIA LIMITED, priority 2009, published 2011).
